# Data from US8697888B2, “Substituted (1-(methylsulfonyl)azetidin-3-yl)(heterocycloalkyl)methanone analogs as antagonists of muscarinic acetylcholine M1 receptors” (Vanderbilt University, priority 2012, dated 2014).
# Biological target: T1, mAChR M1 (UniProt P11229)
# T1 sequence (P11229 1-460): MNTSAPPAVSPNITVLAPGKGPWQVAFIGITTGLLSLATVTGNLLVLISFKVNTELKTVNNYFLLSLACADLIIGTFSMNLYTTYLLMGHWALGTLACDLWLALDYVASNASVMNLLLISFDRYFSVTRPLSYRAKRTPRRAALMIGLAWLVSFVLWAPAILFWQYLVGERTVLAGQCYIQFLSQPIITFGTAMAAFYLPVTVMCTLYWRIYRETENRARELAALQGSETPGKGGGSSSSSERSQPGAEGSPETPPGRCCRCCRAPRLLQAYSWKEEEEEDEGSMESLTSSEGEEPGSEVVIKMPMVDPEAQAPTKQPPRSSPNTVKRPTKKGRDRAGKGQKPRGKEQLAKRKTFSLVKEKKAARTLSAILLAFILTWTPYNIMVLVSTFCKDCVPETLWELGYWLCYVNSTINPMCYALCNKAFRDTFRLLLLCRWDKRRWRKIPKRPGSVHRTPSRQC
# Experiment: mAChR M1 cell-based functional assay (calcium mobilization, antagonist mode)
# Settings: for IC50: concentration of antagonist decreasing calcium flux by 50%, EC80 acetylcholine response, CHO-K1 cells expressing mAChR M1, read-out: Potency (IC50)
# Description: Chinese hamster ovary (CHO-K1) cells stably expressing rat (r)M1 were purchased from the American Type Culture Collection and cultured according to their indicated protocol. CHO cells stably expressing human (h)M2, hM3, and hM5 were described previously (Levey, et al., 1991); hM1 and hM4 cDNAs were purchased from Missouri S&T cDNA Resource; rM4 cDNA was provided by T. I. Bonner (National Institutes of Health, Bethesda, Md.). rM2 and rM3 were cloned from a rat brain cDNA library and sequence verified. hM1, rM2, rM3, hM4, and rM4 cDNAs were used to stably transfect CHO-K1 cells purchased from the American Type Culture Collection using Lipofectamine-2000. To make stable rM2, hM2, rM3, hM4, and rM4 cell lines for use in calcium mobilization assays, these cells also were stably transfected with a chimeric G-protein (Gqi5) (provided by B. R. Conklin, University of California, San Francisco) using Lipofectamine 2000. rM1, hM1, rM3, hM3, rM5, and hM5 cells were grown in Ham's F-12 medium containing 10% heat-inactivated fetal bovine serum (FBS), 20 mM HEPES, and 50 μg/mL G418 sulfate. rM2-Gqi5, hM2-Gqi5, and hM4-Gqi5 cells were grown in the same medium also containing 500 μg/mL Hygromycin B. Stable rM4-Gqi5 cells were grown in DMEM containing 10% heat-inactivated FBS, 20 mM HEPES, 400 μg/mL G418 sulfate, and […].
# For high throughput measurement of antagonist inhibited increases in intracellular calcium, CHO-K1 cells stably expressing muscarinic receptors were plated in growth medium lacking G418 and hygromycin at 15,000 cells/20 μL/well in Greiner 384-well black-walled, tissue culture (TC)-treated, clear-bottom plates (VWR). Cells were incubated overnight at 37° C. and 5% CO2. The next day, cells were washed using an ELX 405 (BioTek) with four washes (80 μL) of assay buffer then aspirated to 20 μL. Next, 20 μL of 16 μM Fluo-4/acetoxymethyl ester (Invitrogen, Carlsbad, Calif.) prepared as a 2.3 mM stock in DMSO and mixed in a 1:1 ratio with 10% (w/v) Pluronic F-127 and diluted in assay buffer was added to the wells and the cell plates were incubated for 50 min at 37° C. and 5% CO2. Dye was removed by washing with the ELX 405 (four 80 μL washes of assay buffer) then aspirated to 20 μL. Compound master plates were formatted in an 11 point CRC format (1:3 dilutions) in 100% DMSO with a starting concentration of 10 mM using the BRAVO liquid handler (Agilent). Test compound CRCs were then transferred to daughter plates (240 nL) using the Echo acoustic plate reformatter (Labcyte, Sunnyvale, Calif.) and then diluted into assay buffer (40 μL) to a 2× stock using a Thermo Fisher Combi (Thermo Fisher Scientific, Waltham, Mass.).
# Calcium flux was measured using the Functional Drug Screening System (FDSS) 6000 (Hamamatsu Corporation, Tokyo, Japan) as an increase in the fluorescent static ratio. Compounds were applied to cells (20 μL, 2×) using the automated system of the FDSS 6000 at 4 s into the 300 s protocol and the data were collected at 1 Hz. At 144 s into the 300 s protocol, 10 μL of an EC20 concentration of the muscarinic receptor agonist acetylcholine was added (5×), followed by the addition of 12 μL an EC80 concentration of acetylcholine at the 230 s time point (5×). Agonist activity was analyzed as a concentration-dependent increase in calcium mobilization upon compound addition. Positive allosteric modulator activity was analyzed as a concentration-dependent increase in the EC20 acetylcholine response. Antagonist activity was analyzed as a concentration-dependent decrease in the EC80 acetylcholine response. Concentration-response curves were generated using a four-parameter logistical equation in XLfit curve fitting software (IDBS, Bridgewater, N.J.) for Excel (Microsoft, Redmond, Wash.) or Prism (GraphPad Software, Inc., San Diego, Calif.).
# The calcium mobilization assay was used to determine “potency”.
# [1] = dash = baseline or about zero remaining activity (table footnote)
# [2] = activity remaining at top dose of 30 μM test compound, as percentage of the response to an approx. EC80 concentration of ACh
SMILES,IC50,Remaining Activity (%) [2],Remaining Activity (%) [1]
COc1ccc(S(=O)(=O)N2CC(C(=O)N3CCN(c4ccncc4)CC3)C2)cn1 [B38],> 10 µM,23%,–
O=C(C1CN(S(=O)(=O)c2cccc3nonc23)C1)N1CCCN(c2ccncc2)CC1 [B32],> 10 µM,34%,–
O=C(C1CN(S(=O)(=O)c2cccc3nonc23)C1)N1CCN(c2nccs2)CC1 [B33],> 10 µM,48%,–
O=C(C1CN(S(=O)(=O)c2cccnc2)C1)N1CCN(c2ccncc2)CC1 [B10],0.35 µM,–,"— (Unless otherwise indicated with a numerical value, the percent remaining activity is baseline or about zero, i.e. as indicated by “—”)"
O=C(C1CN(S(=O)(=O)c2cccc3cnccc23)C1)N1CCN(c2ccncc2)CC1 [B1],–,–,"— (Unless otherwise indicated with a numerical value, the percent remaining activity is baseline or about zero, i.e. as indicated by “—”)"
Cc1cnccc1N1CCN(C(=O)C2CN(S(=O)(=O)c3cccc4cnccc34)C2)CC1 [B13],0.39 µM,–,"— (Unless otherwise indicated with a numerical value, the percent remaining activity is baseline or about zero, i.e. as indicated by “—”)"
CC(C)(C)CS(=O)(=O)N1CC(C(=O)N2CCN(c3ccncc3)CC2)C1 [B43],> 10 µM,43%,–
Cc1cc2c(S(=O)(=O)N3CC(C(=O)N4CCN(c5ccncc5)CC4)C3)cccc2cn1 [B22],–,–,"— (Unless otherwise indicated with a numerical value, the percent remaining activity is baseline or about zero, i.e. as indicated by “—”)"
O=C(C1CN(S(=O)(=O)c2cccnc2Cl)C1)N1CCN(c2ccncc2)CC1 [B21],0.86 µM,–,"— (Unless otherwise indicated with a numerical value, the percent remaining activity is baseline or about zero, i.e. as indicated by “—”)"
CN1C(=O)Cc2cc(S(=O)(=O)N3CC(C(=O)N4CCN(c5ccncc5)CC4)C3)ccc21 [B49],> 10 µM,48%,–
O=C(C1CN(S(=O)(=O)c2cc(Cl)ccc2F)C1)N1CCN(c2ccncc2)CC1 [B35],> 10 µM,32%,–
O=C(C1CN(S(=O)(=O)c2cccc(Cl)c2Cl)C1)N1CCN(c2ccncc2)CC1 [B16],0.62 µM,–,"— (Unless otherwise indicated with a numerical value, the percent remaining activity is baseline or about zero, i.e. as indicated by “—”)"
O=C(C1CN(S(=O)(=O)c2cccc(Cl)c2F)C1)N1CCN(c2ccncc2)CC1 [B34],–,11%,–
O=C(C1CN(S(=O)(=O)c2cccc3nonc23)C1)N1CCN(c2ccc(Br)cn2)CC1 [B11],0.35 µM,–,"— (Unless otherwise indicated with a numerical value, the percent remaining activity is baseline or about zero, i.e. as indicated by “—”)"
Cc1noc(C)c1S(=O)(=O)N1CC(C(=O)N2CCN(c3ccncc3)CC2)C1 [B25],1.9 µM,–,"— (Unless otherwise indicated with a numerical value, the percent remaining activity is baseline or about zero, i.e. as indicated by “—”)"
O=C(C1CN(S(=O)(=O)c2ccc3ncccc3c2)C1)N1CCN(c2ccncc2)CC1 [B15],–,–,"— (Unless otherwise indicated with a numerical value, the percent remaining activity is baseline or about zero, i.e. as indicated by “—”)"
O=C(C1CN(S(=O)(=O)c2cccc3c2OCCO3)C1)N1CCN(c2ccncc2)CC1 [B45],> 10 µM,27%,–
Cc1cc(N2CCN(C(=O)C3CN(S(=O)(=O)c4cccc5cnccc45)C3)CC2)ccn1 [B6],0.12 µM,–,"— (Unless otherwise indicated with a numerical value, the percent remaining activity is baseline or about zero, i.e. as indicated by “—”)"
O=C(C1CN(S(=O)(=O)c2ccc(Cl)cn2)C1)N1CCN(c2ccncc2)CC1 [B42],> 10 µM,34%,–
O=C(C1CN(S(=O)(=O)c2cccc3cnccc23)C1)N1CCc2cccnc2C1 [B51],> 10 µM,60%,–
CC(C)S(=O)(=O)N1CC(C(=O)N2CCN(c3ccncc3)CC2)C1 [B44],> 10 µM,59%,–
O=C(C1CN(S(=O)(=O)c2cccc3nsnc23)C1)N1CCN(c2ccncc2)CC1 [B28],2.2 µM,–,"— (Unless otherwise indicated with a numerical value, the percent remaining activity is baseline or about zero, i.e. as indicated by “—”)"

# Continued, in another order:
IC50,Remaining Activity (%) [2],SMILES,Remaining Activity (%) [1]
3.5 µM,–,O=C(C1CN(S(=O)(=O)c2cccc3ncccc23)C1)N1CC2CN(c3ccncc3)CC2C1 (stereo not drawn) [B52],"— (Unless otherwise indicated with a numerical value, the percent remaining activity is baseline or about zero, i.e. as indicated by “—”)"
> 10 µM,≧80%,Cn1cnc(S(=O)(=O)N2CC(C(=O)N3CCN(c4ccncc4)CC3)C2)c1 [B66],–
> 10 µM,≧80%,O=C(NC1CCN(c2ccccc2)C1)C1CN(S(=O)(=O)c2cccc3cnccc23)C1 (stereo not drawn) [B82],–
> 10 µM,≧80%,Cn1cc(S(=O)(=O)N2CC(C(=O)N3CC4CN(c5ccncc5)CC4C3)C2)cn1 (stereo not drawn) [B83],–
0.93 µM,–,O=C(C1CN(S(=O)(=O)c2cccnc2Cl)C1)N1CC2CN(c3ccncc3)CC2C1 (stereo not drawn) [B54],"— (Unless otherwise indicated with a numerical value, the percent remaining activity is baseline or about zero, i.e. as indicated by “—”)"
> 10 µM,≧80%,O=C(C1CN(S(=O)(=O)C2CCCCC2)C1)N1CC2CN(c3ccncc3)CC2C1 (stereo not drawn) [B86],–
0.96 µM,–,O=C(C1CN(S(=O)(=O)c2cccc3nonc23)C1)N1CC2CN(c3ccncc3)CC2C1 (stereo not drawn) [B56],"— (Unless otherwise indicated with a numerical value, the percent remaining activity is baseline or about zero, i.e. as indicated by “—”)"
> 10 µM,≧80%,CCC(C)S(=O)(=O)N1CC(C(=O)N2CC3CN(c4ccncc4)CC3C2)C1 (stereo not drawn) [B85],–
> 10 µM,≧80%,O=C(C1CN(S(=O)(=O)c2cccc(-n3cnnn3)c2)C1)N1CCN(c2ccncc2)CC1 [B72],–
> 10 µM,≧80%,O=C(C1CN(S(=O)(=O)c2ccc3ccccc3c2)C1)N1CCN(c2ccncc2)CC1 [B77],–
> 10 µM,≧80%,O=C(C1CN(S(=O)(=O)c2ccc(N3CCOCC3)nc2)C1)N1CCN(c2ccncc2)CC1 [B74],–
> 10 µM,≧80%,O=C(C1CN(S(=O)(=O)c2ccc3[nH]c(=O)sc3c2)C1)N1CCN(c2ccncc2)CC1 [B70],–
> 10 µM,≧80%,O=C(C1CN(S(=O)(=O)c2ccncc2)C1)N1CCN(c2ccncc2)CC1 [B67],–
